The test system of one assay is HIV-1 (strain IIIB). The assay can be described thus: Antiviral activity assay in MT4 cells (propidium iodide based). It is filed as cell-based. To be noted: Human immunodeficiency virus 1, IIIB; wild type HIV-1 virus, MT4 cells; read-out: Wildtype virus - IC50. An outline of the steps:
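MT4 cells infected with HIV-1 IIIB (MOI 100×TCID50, 1 hr, 37°C), diluted 6-fold into wells with serially diluted compound, incubated 5 days. Cells lysed with Nonidet-40; DNA content per well estimated by propidium iodide staining as the viability read-out, with mock-infected controls.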

The subject of assay [1] is D545701-14 multi protease inhibitor resistant virus. The assay can be described thus: Anti-viral activity against resistant virus D545701-14 in MT4 cells. It is filed as cell-based, HIV-1. To be noted: Human immunodeficiency virus 1, MT4, read-out: D545701-14 mutant - IC50, D545701-14 multi protease inhibitor resistant virus, MT4 cells.
The subject of assay [2] is EP13 multi protease inhibitor resistant virus. As to the kind of experiment: Anti-viral activity against resistant virus EP13 in MT4 cells. It is filed as cell-based, HIV-1. As to conditions: Human immunodeficiency virus 1, MT4, read-out: EP13 mutant IC50, EP13 multi protease inhibitor resistant virus, MT4 cells. An outline of the steps: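 MT4 cells infected for 1 h at 37 °C, MOI 100×TCID50, then diluted 6-fold onto pre-diluted compound and cultured 5 days (5% CO2). Viable-cell DNA content estimated by propidium iodide. EP13 carries protease mutations M46I, L63P, A71V, V82F/L, I84V, no RT mutations.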

Turning to `N#CCOc1ccc(C[C@H](NC(=O)O[C@H]2CO[C@H]3OCC[C@H]32)[C@H](O)CN(CC2CCCC2)S(=O)(=O)c2ccc3c(c2)OCO3)cc1` [Compound 397, (3R,3aS,6aR)-hexahydrofuro[2,3-b]furan-3-yl (1S,2R)-3-[(1,3-benzodioxol-5-ylsulfonyl)(cyclopentylmethyl)amino]-1-[4-(cyanomethoxy)benzyl]-2-hydroxypropylcarbamate], the IC50 – broadly, the point on the concentration scale where inhibition reaches its midpoint – is 10 to 100 nM with HIV-1 (strain IIIB), 1 to 10 nM in assay [1] and 1 to 10 nM in assay [2].

(Values after patent US8455497B2, “Inhibitors of aspartyl protease” (Vertex Pharmaceuticals Incorporated, priority 1999, dated 2013).)
